According to article PMC9532535 (Acta Pharmaceutica Sinica. B, 2022):

Legend:
[1] = Measurement of critical aggregation concentration; type: physicochemical; conditions: in water, 37 °C overnight, ACQ probe P2 fluorescence
Caco-2 monolayer = assay: Transport across the Caco-2 monolayer; type: in vitro ADME; conditions: Caco-2 monolayer without Raji
[2] = ref [37]; cited from earlier work

CAC (critical aggregation concentration) [1] | transport of PTX in the Caco-2 monolayer (Caco-2 monolayer) | Compound | plasma protein binding [2]
0.37 ± 0.02 mmol/L | – | CCCCCCCCCCCCCCCCCC(=O)[O-].C[N+](C)(C)CCO [Choline stearate] | –
– | negligible | CC(=O)O[C@H]1C(=O)[C@@]2(C)[C@H]([C@H](OC(=O)c3ccccc3)[C@]3(O)C[C@H](OC(=O)[C@H](O)[C@@H](NC(=O)c4ccccc4)c4ccccc4)C(C)=C1C3(C)C)[C@]1(OC(C)=O)CO[C@@H]1C[C@@H]2O [PTX, paclitaxel] | greater than 90%
0.19 ± 0.01 mmol/L | – | Choline oleate | –
